# Values joined by “and” are separate entries in the source; they are usually repeats but may differ in a detail not shown here. Equal entries are not always repeated.
# Tested on: cos-7 cells
# Assay: DNA transfection: luciferase expression relative to Lipofectamine 2000
# Assay type: cell-based
# Conditions: lipid/DNA 2.5 w/w; 300 ng Luciferase DNA per well; 72 hours incubation before bright-glo
# How it was run: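 cos-7 cells were transfected with 300 ng/well luciferase DNA complexed with lipid at ratios from 2.5 to 25 w/w. Bright-Glo luminescence was read after 48 hours and converted to ng luciferase by standard curve. Data are percent of the Lipofectamine 2000 control (2.5 w/w).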
row,SMILES,Luciferase expression as a percentage of that achieved using Lipofectamine 2000
1,CCCCCCCCCCCCCCCOC(=O)CCN(CC)CCCN(CC)CCC(=O)OCCCCCCCCCCCCCCC [LG64],0.3%
2,CCCCCCCCCCCCCCCOC(=O)CCN(CCCn1ccnc1)CCC(=O)OCCCCCCCCCCCCCCC [LG93],45.0%

# Same assay, conditions: lipid/DNA 2.5 w/w; 300 ng Luciferase DNA per well; luciferase assay after 48 hours
row,SMILES,Luciferase expression as a percentage of that achieved using Lipofectamine 2000
1,CCCCCCCCCCCCCCCOC(=O)CCN(CCC(=O)OCCCCCCCCCCCCCCC)C(C)(CO)CO [LG26],0.6%
2,CCCCCCCCCCCCCCCOC(=O)CCN(CCCCO)CCC(=O)OCCCCCCCCCCCCCCC [LG28],0.2%
3,CCCCCCCCCCCCCCCOC(=O)CCN(CCC(=O)OCCCCCCCCCCCCCCC)CC(C)(C)CO [LG33],0.1%
4,CCCCCCCCCCCCCCCOC(=O)CCN(C)CCN(C)CCC(=O)OCCCCCCCCCCCCCCC [LG60],0.9%
5,CCCCCCCCCCCCCCCOC(=O)CCN(CC)CCN(CC)CCC(=O)OCCCCCCCCCCCCCCC [LG61],0.4%
6,CCCCCCCCCCCCCCCOC(=O)CCN(CC)CCCN(CC)CCC(=O)OCCCCCCCCCCCCCCC [LG64],0.0% and 0.2%
7,CCCCCCCCCCCCCCCOC(=O)CCN(CCCN(CC)CC)CCC(=O)OCCCCCCCCCCCCCCC [LG81],0.7%
8,CCCCCCCCCCCCCCCOC(=O)CCN(CCC(=O)OCCCCCCCCCCCCCCC)CCN1CCCCC1 [LG82],0.2%
9,CCCCCCCCCCCCCCCOC(=O)CCN(CCCn1ccnc1)CCC(=O)OCCCCCCCCCCCCCCC [LG93],3.6%

# Same assay, conditions: lipid/DNA 2.5 w/w; 72 hours incubation before bright-glo
row,SMILES,"luciferase expression (second part of table, values relative to LIPO2000)"
1,CCCCCCCCCCCCCCCOC(=O)CCN(CCCn1ccnc1)CCC(=O)OCCCCCCCCCCCCCCC [LG93],45.0

# Same assay, conditions: lipid/DNA 5 w/w; 300 ng Luciferase DNA per well; 72 hours incubation before bright-glo
row,SMILES,Luciferase expression as a percentage of that achieved using Lipofectamine 2000
1,CCCCCCCCCCCCCCCOC(=O)CCN(CC)CCCN(CC)CCC(=O)OCCCCCCCCCCCCCCC [LG64],0.3%
2,CCCCCCCCCCCCCCCOC(=O)CCN(CCCn1ccnc1)CCC(=O)OCCCCCCCCCCCCCCC [LG93],43.8%

# Same assay, conditions: lipid/DNA 5 w/w; 300 ng Luciferase DNA per well; luciferase assay after 48 hours
row,SMILES,Luciferase expression as a percentage of that achieved using Lipofectamine 2000
1,CCCCCCCCCCCCCCCOC(=O)CCN(CCC(=O)OCCCCCCCCCCCCCCC)C(C)(CO)CO [LG26],13.0%
2,CCCCCCCCCCCCCCCOC(=O)CCN(CCCCO)CCC(=O)OCCCCCCCCCCCCCCC [LG28],0.5%
3,CCCCCCCCCCCCCCCOC(=O)CCN(CCC(=O)OCCCCCCCCCCCCCCC)CC(C)(C)CO [LG33],0.1%
4,CCCCCCCCCCCCCCCOC(=O)CCN(C)CCN(C)CCC(=O)OCCCCCCCCCCCCCCC [LG60],1.0%
5,CCCCCCCCCCCCCCCOC(=O)CCN(CC)CCN(CC)CCC(=O)OCCCCCCCCCCCCCCC [LG61],0.5%
6,CCCCCCCCCCCCCCCOC(=O)CCN(CC)CCCN(CC)CCC(=O)OCCCCCCCCCCCCCCC [LG64],0.0% and 0.1%
7,CCCCCCCCCCCCCCCOC(=O)CCN(CCCN(CC)CC)CCC(=O)OCCCCCCCCCCCCCCC [LG81],0.8%
8,CCCCCCCCCCCCCCCOC(=O)CCN(CCC(=O)OCCCCCCCCCCCCCCC)CCN1CCCCC1 [LG82],0.2%
9,CCCCCCCCCCCCCCCOC(=O)CCN(CCCn1ccnc1)CCC(=O)OCCCCCCCCCCCCCCC [LG93],9.2%

# Same assay, conditions: lipid/DNA 5 w/w; 72 hours incubation before bright-glo
row,SMILES,"luciferase expression (second part of table, values relative to LIPO2000)"
1,CCCCCCCCCCCCCCCOC(=O)CCN(CCCn1ccnc1)CCC(=O)OCCCCCCCCCCCCCCC [LG93],43.8

# Same assay, conditions: lipid/DNA 10 w/w; 300 ng Luciferase DNA per well; 72 hours incubation before bright-glo
row,SMILES,Luciferase expression as a percentage of that achieved using Lipofectamine 2000
1,CCCCCCCCCCCCCCCOC(=O)CCN(CC)CCCN(CC)CCC(=O)OCCCCCCCCCCCCCCC [LG64],1.8%
2,CCCCCCCCCCCCCCCOC(=O)CCN(CCCn1ccnc1)CCC(=O)OCCCCCCCCCCCCCCC [LG93],310.5%

# Same assay, conditions: lipid/DNA 10 w/w; 300 ng Luciferase DNA per well; luciferase assay after 48 hours
row,SMILES,Luciferase expression as a percentage of that achieved using Lipofectamine 2000
1,CCCCCCCCCCCCCCCOC(=O)CCN(CCC(=O)OCCCCCCCCCCCCCCC)C(C)(CO)CO [LG26],1.9%
2,CCCCCCCCCCCCCCCOC(=O)CCN(CCCCO)CCC(=O)OCCCCCCCCCCCCCCC [LG28],0.2%
3,CCCCCCCCCCCCCCCOC(=O)CCN(CCC(=O)OCCCCCCCCCCCCCCC)CC(C)(C)CO [LG33],0.1%
4,CCCCCCCCCCCCCCCOC(=O)CCN(C)CCN(C)CCC(=O)OCCCCCCCCCCCCCCC [LG60],0.8%
5,CCCCCCCCCCCCCCCOC(=O)CCN(CC)CCN(CC)CCC(=O)OCCCCCCCCCCCCCCC [LG61],0.4%
6,CCCCCCCCCCCCCCCOC(=O)CCN(CC)CCCN(CC)CCC(=O)OCCCCCCCCCCCCCCC [LG64],0.0% and 0.1%
7,CCCCCCCCCCCCCCCOC(=O)CCN(CCCN(CC)CC)CCC(=O)OCCCCCCCCCCCCCCC [LG81],1.2%
8,CCCCCCCCCCCCCCCOC(=O)CCN(CCC(=O)OCCCCCCCCCCCCCCC)CCN1CCCCC1 [LG82],0.6%
9,CCCCCCCCCCCCCCCOC(=O)CCN(CCCn1ccnc1)CCC(=O)OCCCCCCCCCCCCCCC [LG93],19.8%

# Same assay, conditions: lipid/DNA 10 w/w; 72 hours incubation before bright-glo
row,SMILES,"luciferase expression (second part of table, values relative to LIPO2000)"
1,CCCCCCCCCCCCCCCOC(=O)CCN(CCCn1ccnc1)CCC(=O)OCCCCCCCCCCCCCCC [LG93],310.5

# Same assay, conditions: lipid/DNA 15 w/w; 300 ng Luciferase DNA per well; 72 hours incubation before bright-glo
row,SMILES,Luciferase expression as a percentage of that achieved using Lipofectamine 2000
1,CCCCCCCCCCCCCCCOC(=O)CCN(CC)CCCN(CC)CCC(=O)OCCCCCCCCCCCCCCC [LG64],1.8%
2,CCCCCCCCCCCCCCCOC(=O)CCN(CCCn1ccnc1)CCC(=O)OCCCCCCCCCCCCCCC [LG93],281.8%

# Same assay, conditions: lipid/DNA 15 w/w; 300 ng Luciferase DNA per well; luciferase assay after 48 hours
row,SMILES,Luciferase expression as a percentage of that achieved using Lipofectamine 2000
1,CCCCCCCCCCCCCCCOC(=O)CCN(CCC(=O)OCCCCCCCCCCCCCCC)C(C)(CO)CO [LG26],0.5%
2,CCCCCCCCCCCCCCCOC(=O)CCN(CCCCO)CCC(=O)OCCCCCCCCCCCCCCC [LG28],0.2%
3,CCCCCCCCCCCCCCCOC(=O)CCN(CCC(=O)OCCCCCCCCCCCCCCC)CC(C)(C)CO [LG33],0.1%
4,CCCCCCCCCCCCCCCOC(=O)CCN(C)CCN(C)CCC(=O)OCCCCCCCCCCCCCCC [LG60],0.9%
5,CCCCCCCCCCCCCCCOC(=O)CCN(CC)CCN(CC)CCC(=O)OCCCCCCCCCCCCCCC [LG61],0.4%
6,CCCCCCCCCCCCCCCOC(=O)CCN(CC)CCCN(CC)CCC(=O)OCCCCCCCCCCCCCCC [LG64],0.0% and 0.1%
7,CCCCCCCCCCCCCCCOC(=O)CCN(CCCN(CC)CC)CCC(=O)OCCCCCCCCCCCCCCC [LG81],4.1%
8,CCCCCCCCCCCCCCCOC(=O)CCN(CCC(=O)OCCCCCCCCCCCCCCC)CCN1CCCCC1 [LG82],0.8%
9,CCCCCCCCCCCCCCCOC(=O)CCN(CCCn1ccnc1)CCC(=O)OCCCCCCCCCCCCCCC [LG93],37.3%

# Same assay, conditions: lipid/DNA 15 w/w; 72 hours incubation before bright-glo
row,SMILES,"luciferase expression (second part of table, values relative to LIPO2000)"
1,CCCCCCCCCCCCCCCOC(=O)CCN(CCCn1ccnc1)CCC(=O)OCCCCCCCCCCCCCCC [LG93],281.8

# Same assay, conditions: lipid/DNA 20 w/w; 300 ng Luciferase DNA per well; 72 hours incubation before bright-glo
row,SMILES,Luciferase expression as a percentage of that achieved using Lipofectamine 2000
1,CCCCCCCCCCCCCCCOC(=O)CCN(CC)CCCN(CC)CCC(=O)OCCCCCCCCCCCCCCC [LG64],1.2%
2,CCCCCCCCCCCCCCCOC(=O)CCN(CCCn1ccnc1)CCC(=O)OCCCCCCCCCCCCCCC [LG93],185.9%

# Same assay, conditions: lipid/DNA 20 w/w; 300 ng Luciferase DNA per well; luciferase assay after 48 hours
row,SMILES,Luciferase expression as a percentage of that achieved using Lipofectamine 2000
1,CCCCCCCCCCCCCCCOC(=O)CCN(CCC(=O)OCCCCCCCCCCCCCCC)C(C)(CO)CO [LG26],0.3%
2,CCCCCCCCCCCCCCCOC(=O)CCN(CCCCO)CCC(=O)OCCCCCCCCCCCCCCC [LG28],0.1%
3,CCCCCCCCCCCCCCCOC(=O)CCN(CCC(=O)OCCCCCCCCCCCCCCC)CC(C)(C)CO [LG33],0.1%
4,CCCCCCCCCCCCCCCOC(=O)CCN(C)CCN(C)CCC(=O)OCCCCCCCCCCCCCCC [LG60],0.8%
5,CCCCCCCCCCCCCCCOC(=O)CCN(CC)CCN(CC)CCC(=O)OCCCCCCCCCCCCCCC [LG61],0.4%
6,CCCCCCCCCCCCCCCOC(=O)CCN(CC)CCCN(CC)CCC(=O)OCCCCCCCCCCCCCCC [LG64],0.0% and 0.1%
7,CCCCCCCCCCCCCCCOC(=O)CCN(CCCN(CC)CC)CCC(=O)OCCCCCCCCCCCCCCC [LG81],14.8%
8,CCCCCCCCCCCCCCCOC(=O)CCN(CCC(=O)OCCCCCCCCCCCCCCC)CCN1CCCCC1 [LG82],0.5%
9,CCCCCCCCCCCCCCCOC(=O)CCN(CCCn1ccnc1)CCC(=O)OCCCCCCCCCCCCCCC [LG93],24.0%

# Same assay, conditions: lipid/DNA 20 w/w; 72 hours incubation before bright-glo
row,SMILES,"luciferase expression (second part of table, values relative to LIPO2000)"
1,CCCCCCCCCCCCCCCOC(=O)CCN(CCCn1ccnc1)CCC(=O)OCCCCCCCCCCCCCCC [LG93],185.9

# Same assay, conditions: lipid/DNA 25 w/w; 300 ng Luciferase DNA per well; 72 hours incubation before bright-glo
row,SMILES,Luciferase expression as a percentage of that achieved using Lipofectamine 2000
1,CCCCCCCCCCCCCCCOC(=O)CCN(CC)CCCN(CC)CCC(=O)OCCCCCCCCCCCCCCC [LG64],1.6%
2,CCCCCCCCCCCCCCCOC(=O)CCN(CCCn1ccnc1)CCC(=O)OCCCCCCCCCCCCCCC [LG93],183.8%

# Same assay, conditions: lipid/DNA 25 w/w; 300 ng Luciferase DNA per well; luciferase assay after 48 hours
row,SMILES,Luciferase expression as a percentage of that achieved using Lipofectamine 2000
1,CCCCCCCCCCCCCCCOC(=O)CCN(CCC(=O)OCCCCCCCCCCCCCCC)C(C)(CO)CO [LG26],0.4%
2,CCCCCCCCCCCCCCCOC(=O)CCN(CCCCO)CCC(=O)OCCCCCCCCCCCCCCC [LG28],0.2%
3,CCCCCCCCCCCCCCCOC(=O)CCN(CCC(=O)OCCCCCCCCCCCCCCC)CC(C)(C)CO [LG33],0.1%
4,CCCCCCCCCCCCCCCOC(=O)CCN(C)CCN(C)CCC(=O)OCCCCCCCCCCCCCCC [LG60],1.0%
5,CCCCCCCCCCCCCCCOC(=O)CCN(CC)CCN(CC)CCC(=O)OCCCCCCCCCCCCCCC [LG61],0.5%
6,CCCCCCCCCCCCCCCOC(=O)CCN(CC)CCCN(CC)CCC(=O)OCCCCCCCCCCCCCCC [LG64],0.0% and 0.2%
7,CCCCCCCCCCCCCCCOC(=O)CCN(CCCN(CC)CC)CCC(=O)OCCCCCCCCCCCCCCC [LG81],19.9%
8,CCCCCCCCCCCCCCCOC(=O)CCN(CCC(=O)OCCCCCCCCCCCCCCC)CCN1CCCCC1 [LG82],1.2%
9,CCCCCCCCCCCCCCCOC(=O)CCN(CCCn1ccnc1)CCC(=O)OCCCCCCCCCCCCCCC [LG93],24.6%

# Same assay, conditions: lipid/DNA 25 w/w; 72 hours incubation before bright-glo
row,SMILES,"luciferase expression (second part of table, values relative to LIPO2000)"
1,CCCCCCCCCCCCCCCOC(=O)CCN(CCCn1ccnc1)CCC(=O)OCCCCCCCCCCCCCCC [LG93],183.8
